This note sets out measurements from patent US11613531B2, “Inhibitors of RHO associated coiled-coil containing protein kinase” (Kadmon Corporation, LLC, priority 2017, dated 2023).

Each structure is given as a SMILES string.

One assay deals with ppMlc (T18/S19) levels in A7R5 cells. In words: A7R5 in-cell ELISA (pMLC). Particulars: Rattus norvegicus, A7R5, A7R5 cells, 1 μM compound; read-out: pMLC % inh A7R5 @ [conc]. It is filed as cell-based, Rat. The procedure: Determination of Compounds ROCK Inhibitory Activity in A7R5Cells.
Rat aortic smooth muscle cell line, A7R5, cells were seeded with density of 5,000 cells/well in a 96-well plates for 24 hours and subsequently treated for 90 min with testing compounds. Cells were then fixed and processed according to the In-Cell ELISA Colorimetric Detection Kit manual (Thermo Scientific).
An A7R5 in-cell Elisa assay was performed. A7R5 cells were treated with 9 points 2 fold serial dilution of compounds and ppMlc (T18/S19) levels were determined to calculate cellular IC50 values of the compounds. Compounds of the invention gave in cell IC50s under 100 nM.
In vitro activities for the compounds were measured with Z′-lyte kinase kit (ThermoFisher Scientific). The percent inhibition rate was calculated by normalizing the kinase activity value obtained with 1 μM compound treatment against DMSO control value and then applied to the formula, [1-(compound/DMSO)]×100%. IC50s were calculated using the nonlinear regression curve fit function of the GraphPad Prism software with kinase activities data measured with 9 points 2-fold serial dilution of compounds treatment. In cell pMLC IC50s were calculated with data obtained from A7R5 cell experiments. A7R5 cells were treated with 9 points 2-fold serial dilution of compounds and ppMlc (T18/S19) levels were determined to calculate cellular IC50 values of the compounds using the nonlinear regression curve fit function of the GraphPad Prism software. NIH3T3 cells stably expressing ACTA2-promoter-driven-luciferase were applied to measure ROCK compounds functional IC50s in cells. Cells were plated in 96 well plates to confluence and treated with 9 points serial dilution of compounds in combination with TGFβ1 for 24 hr. Luciferase activities were measured and compound's IC50s were calculated using the nonlinear regression curve fit function of the GraphPad Prism software.
(An ELISA detects its analyte on a solid surface through an enzyme-linked reagent.)
Turning to `Cc1cc(Nc2ccc3[nH]ncc3c2)nc(N2CCC3(CCCNC3)C2)n1` (centres unmarked) [Example 124, N-(6-methyl-2-(2,7-diazaspiro[4.5]decan-2-yl)pyrimidin-4-yl)-1H-indazol-5-amine], the inhibition at 1 µM was -7.6%.

For `Cc1cc(Nc2ccc3[nH]ncc3c2)nc(N2CCCC3(CCNC3)C2)n1` (centres unmarked) [Example 125, N-(6-methyl-2-(2,7-diazaspiro[4.5]decan-7-yl)pyrimidin-4-yl)-1H-indazol-5-amine], the inhibition at 1 µM came to 0.7%.

On to `Cc1cc(Nc2ccc3[nH]ncc3c2)nc(N2CC3(CCNC3)C2)n1` [Example 126, N-(6-methyl-2-(2,6-diazaspiro[3.4]octan-2-yl)pyrimidin-4-yl)-1H-indazol-5-amine], for which the inhibition at 1 µM was -12.3%. As to `Cc1cc(Nc2ccc3[nH]ncc3c2)nc(N2CC3(CCNCC3)C2)n1` [Example 127, N-(6-methyl-2-(2,7-diazaspiro[3.5]nonan-2-yl)pyrimidin-4-yl)-1H-indazol-5-amine], the inhibition at 1 µM was -7.2%. As to `Cc1cc(Nc2ccc3[nH]ncc3c2)nc(N2CC3(CNC3)C2)n1` [Example 128, N-(6-methyl-2-(2,6-diazaspiro[3.3]heptan-2-yl)pyrimidin-4-yl)-1H-indazol-5-amine], the inhibition at 1 µM was -8.3%.

In the case of `Cc1cc(Nc2ccc3[nH]ncc3c2)nc(N2CCCC(C3CCCNC3)C2)n1` (centres unmarked) [Example 136, N-(2-([3,3′-bipiperidin]-1-yl)-6-methylpyrimidin-4-yl)-1H-indazol-5-amine], the inhibition at 1 µM came to 1.1%. Consider `Cc1cc(Nc2ccc3[nH]ncc3c2)nc(N2CC(C3CCCNC3)c3ccccc32)n1` (centres unmarked) [Example 139, N-(6-methyl-2-(3-(piperidin-3-yl)indolin-1-yl)pyrimidin-4-yl)-1H-indazol-5-amine], for which the inhibition at 1 µM came out at 2.2%. Consider `OCC1CNCCN1c1ncc(F)c(Nc2ccc3[nH]ncc3c2)n1` (centres unmarked) [Example 156, (1-(4-((1H-indazol-5-yl)amino)-5-fluoropyrimidin-2-yl)piperazin-2-yl)methanol], for which the inhibition at 1 µM is 7.1%. On the same count and under the same terms, next, `Fc1cnc(N2CCC3(CC2)CNC3)nc1Nc1ccc2[nH]ncc2c1` [Example 158, N-(5-fluoro-2-(2,7-diazaspiro[3.5]nonan-7-yl)pyrimidin-4-yl)-1H-indazol-5-amine]: -1.1%; `Fc1cnc(N2CCC3(CNC3)C2)nc1Nc1ccc2[nH]ncc2c1` [Example 159, N-(5-fluoro-2-(2,6-diazaspiro[3.4]octan-6-yl)pyrimidin-4-yl)-1H-indazol-5-amine]: -12.2%.

In the case of `Fc1cnc(N2CCC3(CC2)CNCCO3)nc1Nc1ccc2[nH]ncc2c1` [Example 160, N-(5-fluoro-2-(1-oxa-4,9-diazaspiro[5.5]undecan-9-yl)pyrimidin-4-yl)-1H-indazol-5-amine], the inhibition at 1 µM is 5.9%. With `Fc1cnc(N2CCC3(CCCNC3)C2)nc1Nc1ccc2[nH]ncc2c1` (centres unmarked) [Example 161, N-(5-fluoro-2-(2,7-diazaspiro[4.5]decan-2-yl)pyrimidin-4-yl)-1H-indazol-5-amine], the inhibition at 1 µM turned out to be 2.6%.

Staying with this assay, now noted: Rattus norvegicus, A7R5, A7R5 cells, 10 μM compound; read-out: pMLC % inh A7R5 @ [conc].
For the molecule `Fc1cnc(N2CCCNC(c3ccccc3)C2)nc1Nc1ccc2[nH]ncc2c1` (centres unmarked) [Example 141, N-(5-fluoro-2-(3-phenyl-1,4-diazepan-1-yl)pyrimidin-4-yl)-1H-indazol-5-amine], the inhibition at 10 µM was determined as 54.9%. `Fc1cnc(N2CCNC(c3ccccc3)CC2)nc1Nc1ccc2[nH]ncc2c1` (centres unmarked) [Example 142, N-(5-fluoro-2-(5-phenyl-1,4-diazepan-1-yl)pyrimidin-4-yl)-1H-indazol-5-amine]: the inhibition at 10 µM turned out to be 37.5%. On to `CC(C)C1CN(c2ncc(F)c(Nc3ccc4[nH]ncc4c3)n2)CCCN1` (centres unmarked) [Example 144, N-(5-fluoro-2-(3-isopropyl-1,4-diazepan-1-yl)pyrimidin-4-yl)-1H-indazol-5-amine], for which the inhibition at 10 µM amounted to 45.6%. Take `CC(C)C1CCN(c2ncc(F)c(Nc3ccc4[nH]ncc4c3)n2)CCN1` (centres unmarked) [Example 145, N-(5-fluoro-2-(5-isopropyl-1,4-diazepan-1-yl)pyrimidin-4-yl)-1H-indazol-5-amine]: the inhibition at 10 µM worked out at 42.4%.

Staying with this assay, now noted: Rattus norvegicus, A7R5, A7R5 cells, ppMlc (T18/S19).
For orientation: IC50 means the point on the concentration scale where inhibition reaches its midpoint. For the molecule `Fc1cnc(N2CCCNC(c3ccccc3)C2)nc1Nc1ccc2[nH]ncc2c1` (centres unmarked) [Example 141, N-(5-fluoro-2-(3-phenyl-1,4-diazepan-1-yl)pyrimidin-4-yl)-1H-indazol-5-amine], the IC50 is 2890 nM.
